Some results are limits rather than exact numbers.

The target in this experiment is T1, GPR119 (UniProt Q8TDV5, S309L, species not given).
T1 sequence (Q8TDV5 1-335 S309L): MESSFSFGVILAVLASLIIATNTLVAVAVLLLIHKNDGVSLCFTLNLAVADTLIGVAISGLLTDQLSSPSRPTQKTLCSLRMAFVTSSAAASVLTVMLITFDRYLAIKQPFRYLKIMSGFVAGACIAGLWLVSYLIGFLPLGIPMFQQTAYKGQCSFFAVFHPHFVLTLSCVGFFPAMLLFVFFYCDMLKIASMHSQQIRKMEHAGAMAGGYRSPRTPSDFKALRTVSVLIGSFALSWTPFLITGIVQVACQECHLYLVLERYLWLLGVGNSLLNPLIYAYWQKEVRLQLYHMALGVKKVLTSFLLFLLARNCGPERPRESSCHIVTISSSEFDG
As to the kind of experiment: GPR119 signaling, cyclic AMP (cAMP) HTRF assay. It counts as cell-based, human (S309L variant) or murine. The settings on record: CHO cells with Gα15 and murine GPR119 or HEK293 Flp-In cells with human GPR119 S309L, read-out: EC50 (agonist activation of GPR119, cAMP). The text has this: The title compound was synthesized using 2-{2-[1-(5-chloropyrimidin-2-yl)piperidin-4-yl]cyclopropyl}ethyl 4-methylbenzenesulfonate from step 1 of this example by a general procedure analogous that described in Example 59. LRMS calc: 424.9; obs: 425.01 (M+1). Measurement of GPR119Signaling Using a Cyclic AMP (cAMP) Homogenous Time Resolved Fluorescence (HTRF) Assay
Chinese hamster ovary (CHO) cell lines stably transfected with the permissive guanine nucleotide binding protein alpha 15 (Gα15) and murine GPR119 were maintained in DMEM media containing FBS, penicillin-streptomycin, puromycin, and G418 (geneticin). Alternatively, human embryonic kidney (HEK)293 Flp-In cells (Invitrogen, Carlsbad, Calif.) were stably transfected with a human SNP variant (S309L) of GPR119 and maintained in DMEM media containing FBS, penicillin-streptomycin, and hygromycin. Agonist activation of the GPR119 receptor was measured in receptor transfected cells described above, treated with compounds of this invention, using a commercial homogenous time resolved fluorescence (HTRF) kit for measurement of cAMP (CisBio, Bedford, Mass.). The assay was performed in 96-well half-volume plates (murine) or 384-well plates (human) following the manufacturers instructions. Briefly, suspended cells were incubated with a dose titration of test compound at room temperature for 60 min, lysed, and incubated with HTRF reagents for an additional 60 min. The plate was read using an Envision multilabel reader (Perkin Elmer) adjusted to read time resolved fluorescence and the cAMP concentrations were extrapolated from a cAMP calibration curve. […] The concentration of test compound required to stimulate a half-maximal response (EC50), and efficacy as compared to an internal agonist control, was determined from a sigmoidal 4-parameter curve fit of the resulting plot of normalized activity versus compound concentration.
Background: TR-FRET usually uses a lanthanide donor and a delayed reading to cut background.
What is called EC50 is the midpoint of the concentration-response curve. For `Clc1cnc(N2CCC([C@H]3C[C@H]3CCNc3ccc(-n4cnnc4)cc3)CC2)nc1` [Ex 25, N-(2-{(1S,2S)-2-[1-(5-chloropyrimidin-2-yl)piperidin-4-yl]cyclopropyl}ethyl)-4-(4H-1,2,4-triazol-4-yl)aniline], the concentration for a half-maximal effect (EC50) was less than 10 nM.

Turning to `Clc1cnc(N2CCC([C@H]3C[C@H]3CCNc3cnc(-n4cnnn4)nc3)CC2)nc1` [Ex 26, N-(2-{(1S,2S)-2-[1-(5-chloropyrimidin-2-yl)piperidin-4-yl]cyclopropyl}ethyl)-2-(1H-tetrazol-1-yl)pyrimidin-5-amine], the EC50 lay within 10 to 50 nM.

Consider `O=C1COC(=O)N1c1ccc(NCC[C@@H]2C[C@@H]2C2CCN(c3ncc(Cl)cn3)CC2)cn1` [Ex 27], for which the EC50 lay within 10 to 50 nM.

Regarding `Cc1cc(NC(=O)C(C)(C)C)cnc1NCC[C@@H]1C[C@@H]1C1CCN(c2ncc(Cl)cn2)CC1` [Ex 28, N-{6-[(2-{(1S,2S)-2-[1-(5-chloropyrimidin-2-yl)piperidin-4-yl]cyclopropyl}ethyl)amino]-5-methylpyridin-3-yl}-2,2-dimethylpropanamide], the EC50 is less than 10 nM.

`Cc1cc(NCC[C@@H]2C[C@@H]2C2CCN(c3ncc(Cl)cn3)CC2)ncc1NC(=O)C(C)(C)C` [Ex 29, N-{6-[(2-{(1S,2S)-2-[1-(5-chloropyrimidin-2-yl)piperidin-4-yl]cyclopropyl}ethyl)amino]-4-methylpyridin-3-yl}-2,2-dimethyl propanamide]: the EC50 is less than 10 nM.

`CC(C)(C)C(=O)Nc1ccc(NCC[C@@H]2C[C@@H]2C2CCN(c3ncc(Cl)cn3)CC2)nc1` [Ex 30, N-{6-[(2-{(1S,2S)-2-[1-(5-chloropyrimidin-2-yl)piperidin-4-yl]cyclopropyl}ethyl)amino]pyridin-3-yl}-2,2-dimethyl propanamide]: the 50% effective concentration (EC50) is less than 10 nM.

As to `Cc1cc(NCC[C@@H]2C[C@@H]2C2CCN(c3ncc(Cl)cn3)CC2)cnc1NC(=O)C(C)(C)C` [Ex 31, N-{5-[(2-{(1S,2S)-2-[1-(5-chloropyrimidin-2-yl)piperidin-4-yl]cyclopropyl}ethyl)amino]-3-methylpyridin-2-yl}-2,2-dimethyl propanamide], the EC50 is less than 10 nM.

Turning to `CC(C)(C)C(=O)Nc1ncc(NCC[C@@H]2C[C@@H]2C2CCN(c3ncc(Cl)cn3)CC2)cc1Cl` [Ex 32, N-{3-chloro-5-[(2-{(1S,2S)-2-[1-(5-chloropyrimidin-2-yl)piperidin-4-yl]cyclopropyl}ethyl)amino]pyridin-2-yl}-2,2-dimethyl propanamide], the EC50 was less than 10 nM.

Take `CC(=O)Nc1cnc(NCC[C@@H]2C[C@@H]2C2CCN(c3ncc(Cl)cn3)CC2)c(C)c1` [Ex 33, N-{6-[(2-{(1S,2S)-2-[1-(5-chloropyrimidin-2-yl)piperidin-4-yl]cyclopropyl}ethyl)amino]-5-methylpyridin-3-yl}acetamide]: the EC50 lay in the range of 10 to 50 nM.

As for `CC(=O)Nc1cnc(NCC[C@@H]2C[C@@H]2C2CCN(c3ncc(Cl)cn3)CC2)cc1C` [Ex 34, N-{6-[(2-{(1S,2S)-2-[1-(5-chloropyrimidin-2-yl)piperidin-4-yl]cyclopropyl}ethyl)amino]-4-methylpyridin-3-yl}acetamide], the 50% effective concentration (EC50) fell in the range of 10 to 50 nM.

Turning to `CC(=O)Nc1ccc(NCC[C@@H]2C[C@@H]2C2CCN(c3ncc(Cl)cn3)CC2)nc1` [Ex 35, N-{6-[(2-{(1S,2S)-2-[1-(5-chloropyrimidin-2-yl)piperidin-4-yl]cyclopropyl}ethyl)amino]pyridin-3-yl}acetamide], the EC50 was in the range of 10 to 50 nM.

`Cc1cc(-n2cnnn2)cnc1NCC[C@@H]1C[C@@H]1C1CCN(c2ncc(Cl)cn2)CC1` [Ex 36, N-(2-{(1S,2S)-2-[1-(5-chloropyrimidin-2-yl)piperidin-4-yl]cyclopropyl}ethyl)-3-methyl-5-(1H-tetrazol-1-yl)pyridin-2-amine]: the concentration giving a half-maximal response (EC50) is less than 10 nM.

Turning to `CC1(C(=O)Nc2ccc(NCC[C@@H]3C[C@@H]3C3CCN(c4ncc(Cl)cn4)CC3)nc2)CC1` [Ex 37, N-{6-[(2-{(1S,2S)-2-[1-(5-chloropyrimidin-2-yl)piperidin-4-yl]cyclopropyl}ethyl)amino]pyridin-3-yl}-1-methylcyclopropanecarboxamide], the EC50 was less than 10 nM.

`CC1(C(=O)Nc2ccc(NCC[C@@H]3C[C@@H]3C3CCN(c4ncc(Cl)cn4)CC3)cn2)CC1` [Ex 38, N-{5-[(2-{(1S,2S)-2-[1-(5-chloropyrimidin-2-yl)piperidin-4-yl]cyclopropyl}ethyl)amino]pyridin-2-yl}-1-methylcyclopropane carboxamide]: the EC50 is less than 10 nM.

In the case of `Cc1cc(NCC[C@@H]2C[C@@H]2C2CCN(c3ncc(Cl)cn3)CC2)cnc1NC(=O)C1(C)CC1` [Ex 39], the EC50 is less than 10 nM.

Take `Cc1cc(C#N)cc(NCC[C@@H]2C[C@@H]2C2CCN(c3ncc(Cl)cn3)CC2)n1` [Ex 40, 2-[(2-{(1S,2S)-2-[1-(5-chloropyrimidin-2-yl)piperidin-4-yl]cyclopropyl}ethyl)amino]-6-methylisonicotinonitrile]: the EC50 lay in the range of 10 to 50 nM.

As for `Cc1cc(C#N)nc(NCC[C@@H]2C[C@@H]2C2CCN(c3ncc(Cl)cn3)CC2)c1` [Ex 41, 6-[(2-{(1S,2S)-2-[1-(5-chloropyrimidin-2-yl)piperidin-4-yl]cyclopropyl}ethyl)amino]-4-methylpyridine-2-carbonitrile], the EC50 was in the range of 10 to 50 nM.

On to `Clc1cnc(N2CCC([C@H]3C[C@H]3CCNc3ccc4[nH]ncc4c3)CC2)nc1` [Ex 42, N-(2-{(1S,2S)-2-[1-(5-chloropyrimidin-2-yl)piperidin-4-yl]cyclopropyl}ethyl)-1H-indazol-5-amine], for which the 50% effective concentration (EC50) was less than 10 nM.

In the case of `O=C(Cc1ccc(NCC[C@@H]2C[C@@H]2C2CCN(c3ncc(Cl)cn3)CC2)cc1)NC1CC1` [Ex 43, 2-{4-[(2-{(1S,2S)-2-[1-(5-chloropyrimidin-2-yl)piperidin-4-yl]cyclopropyl}ethyl)amino]phenyl}-N-cyclopropylacetamide], the EC50 lay in the range of 10 to 50 nM.

With `O=C1NCc2cc(NCC[C@@H]3C[C@@H]3C3CCN(c4ncc(Cl)cn4)CC3)ccc21` [Ex 44, 5-[(2-{(1S,2S)-2-[1-(5-chloropyrimidin-2-yl)piperidin-4-yl]cyclopropyl}ethyl)amino]isoindolin-1-one], the EC50 is less than 10 nM.

For the molecule `CN1Cc2cc(NCC[C@@H]3C[C@@H]3C3CCN(c4ncc(Cl)cn4)CC3)ccc2C1=O` [Ex 45, 5-[(2-{(1S,2S)-2-[1-(5-chloropyrimidin-2-yl)piperidin-4-yl]cyclopropyl}ethyl)amino]-2-methylisoindolin-1-one], the EC50 is 10 to 50 nM.

For the molecule `O=C1c2ccc(NCC[C@@H]3C[C@@H]3C3CCN(c4ncc(Cl)cn4)CC3)cc2CN1C1CC1` [Ex 46, 5-[(2-{(1S,2S)-2-[1-(5-chloropyrimidin-2-yl)piperidin-4-yl]cyclopropyl}ethyl)amino]-2-cyclopropylisoindolin-1-one], the EC50 was less than 10 nM.

In the case of `Cc1n[nH]c2ccc(NCC[C@@H]3C[C@@H]3C3CCN(c4ncc(Cl)cn4)CC3)cc12` [Ex 47, N-(2-{(1S,2S)-2-[1-(5-chloropyrimidin-2-yl)piperidin-4-yl]cyclopropyl}ethyl)-3-methyl-1H-indazol-5-amine], the EC50 was less than 10 nM.

Values taken from patent US8552022B2, “Substituted cyclopropyl compounds, compositions containing such compounds and methods of treatment” (Merck Sharp & Dohme Corp., priority 2009, dated 2013).
